Patent publication US8476081B2, “Assay for evaluating affinity and specificity of ligand-albumin binding” (Janssen Pharmaceutica NV, priority 2009, dated 2013)
pIC50, pKd: −log10 of the molar value. Like-named read-outs stand apart in the source and are kept apart here.

Legend:
[1] = target: Human Serum Albumin (HSA) (Homo sapiens, UniProt P02768); experiment: ThermoFluor thermal shift assay with human serum albumin
Experimental: (§1) 1× reaction mixture of about 50 μg/mL human serum albumin, about 4 μM 1,8-ANS, about 150 mM NaCl, about 25 mM PIPES, pH 7.2, and about 0.002% Tween®-20 was prepared.
(§2) To prevent evaporation, about 1 μL of silicone oil was added to the plate using multichannel pipettors.
The plates were loaded onto a ThermoFluor® device and heated from about 25° C. to about 95° C. at a ramp-rate of about 1° C. per minute. Fluorescence was measured by continuous illumination with UV light (Hamamatsu LC6) via fiber optic and filtered through a band-pass filter of about 390±10 nm; >6 OD cutoff. Fluorescence emissions were detected by measuring light intensity using a CCD camera (Sensys, Roper Scientific) filtered to detect about 500±25 nm; >6 OD cutoff. This allows for the entire plate to be simultaneously monitored and each sample to be independently monitored. One or more images were collected at an interval of every about 0.5° C. to about 1° C. The sum of the pixel intensity at a given area of the plate was recorded vs. temperature.
(§3) The values of Tm, ΔH, yF,Tm, mF, yU,Tm and mU were calculated for each sample according to Equation 9. Further, the value of Tm over the compound concentration was used to calculate the binding constant (KD) using Equation 10b. A shift in the denaturation curve of albumin indicates whether the compound binds to albumin, and the value of KD indicates the binding strength of compounds to albumin. A shift of the fluorescence signal indicates the specificity of compounds to albumin, and the value of IC50 indicates the binding strength to the site I (Equation 11).
(§4) The compounds and 1× reaction mixture were dispensed and measured for the fluorescence value using the plate-based reader Tecan® Safire II. Then the plate was heated in a ThermoFluor® system and measured for fluorescence value and the thermal shift value. The fluorescence values were measured twice by both plate reader and ThermoFluor®. The fluorescence value obtained from ThermoFluor® was used for qualitative assessment whereas those from the plate reader was used for quantitative assessment. The value of IC50 was determined by the fluorescence obtained from the plate reader and was fit using Equation 11 described above. The value of KD was determined by the readings from ThermoFluor® and was fit using Equation 10b described above.

[2] = target: T1, Bovine Serum Albumin (BSA) (Bos taurus, UniProt P02769); experiment: ThermoFluor thermal shift assay with bovine serum albumin; format: binding
T1 construct: The above albumins were prepared using method IV of Cohn et al. (J. Am. Chem. Soc. 69: 1753-1761, 1947) and purified with 1× crystallization; purchased Sigma A-7638
T1 sequence (P02769 25-607): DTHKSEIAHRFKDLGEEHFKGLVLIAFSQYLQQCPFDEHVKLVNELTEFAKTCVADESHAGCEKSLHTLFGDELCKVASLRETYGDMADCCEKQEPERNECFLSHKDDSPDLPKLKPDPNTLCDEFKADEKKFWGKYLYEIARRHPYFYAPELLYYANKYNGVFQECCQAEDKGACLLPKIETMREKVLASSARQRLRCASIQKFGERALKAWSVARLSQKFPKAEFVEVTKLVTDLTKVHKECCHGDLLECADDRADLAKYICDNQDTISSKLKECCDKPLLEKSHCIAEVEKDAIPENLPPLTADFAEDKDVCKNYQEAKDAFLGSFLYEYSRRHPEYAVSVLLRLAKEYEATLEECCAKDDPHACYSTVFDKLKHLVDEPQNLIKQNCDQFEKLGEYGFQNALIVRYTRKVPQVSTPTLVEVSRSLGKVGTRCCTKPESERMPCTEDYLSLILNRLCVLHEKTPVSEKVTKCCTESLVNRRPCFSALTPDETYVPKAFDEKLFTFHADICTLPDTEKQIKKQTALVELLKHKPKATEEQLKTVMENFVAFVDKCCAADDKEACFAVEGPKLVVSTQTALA
Excerpt: (§5) To evaluate the bioavailability of a compound in various species, the compound's affinity and specificity to albumins from human, bovine, rat, and mouse were examined. […] The resulting 1× reaction mixture comprising human serum albumin, bovine serum albumin, rat serum albumin, or mouse serum albumin was used with a panel of compounds in the binding assay.

[3] = target: Human Serum Albumin (HSA) site I (Homo sapiens, UniProt P02768); experiment: 1,8-ANS site-specific probe displacement (fluorescence) from HSA site I; settings: for % Displacement: percent displacement of the site-specific probe 1,8-ANS at the second highest concentration of test ligand; for Fluorescent Signal: initial 1,8-ANS fluorescence as % of fluorescence without compound
Human Serum Albumin (HSA) site I, sequence (P02768 25-609): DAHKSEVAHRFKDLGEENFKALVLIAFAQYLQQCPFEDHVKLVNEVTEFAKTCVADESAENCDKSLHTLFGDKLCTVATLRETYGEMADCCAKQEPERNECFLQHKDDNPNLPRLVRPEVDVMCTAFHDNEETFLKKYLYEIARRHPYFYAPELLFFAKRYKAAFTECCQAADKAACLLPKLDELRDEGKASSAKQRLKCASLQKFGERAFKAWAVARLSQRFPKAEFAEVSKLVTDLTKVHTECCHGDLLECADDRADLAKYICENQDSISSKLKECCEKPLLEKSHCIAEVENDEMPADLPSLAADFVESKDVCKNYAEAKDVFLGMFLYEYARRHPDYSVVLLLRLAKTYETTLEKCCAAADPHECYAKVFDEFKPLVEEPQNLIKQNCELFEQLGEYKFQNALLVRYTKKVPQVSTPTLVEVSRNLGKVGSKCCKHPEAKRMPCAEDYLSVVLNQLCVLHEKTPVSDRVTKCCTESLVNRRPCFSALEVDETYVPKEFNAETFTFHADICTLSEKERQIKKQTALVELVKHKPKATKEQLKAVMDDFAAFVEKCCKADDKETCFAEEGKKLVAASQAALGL
Excerpt: In addition to the thermal shift assay, the assay test plate may be utilized in a separate fluorescence measurement using a plate-based reader that is compatible with any relevant wavelengths. The preferred plate-based reader is Tecan Satire II. The displacement of site-specific probe such as 1,8-ANS from albumin site 1 by test ligand may cause a decrease in observed fluorescence that may be fit to Equation 11 to determine the value of IC50.
Additionally, the percent displacement may be determined by (y−yhigh), divided by the difference of low (y0) and high endpoints (yhigh), wherein y is determined at the second highest concentration.
as §1, §2, §3, §4

Mouse Serum Albumin = target: T2, Mouse Serum Albumin (Mus musculus, UniProt P07724); experiment: ThermoFluor thermal shift assay with mouse serum albumin; format: binding
T2 construct: The above albumins were prepared using method IV of Cohn et al. (J. Am. Chem. Soc. 69: 1753-1761, 1947) and purified with 1× crystallization; purchased Sigma A-3559
T2 sequence (P07724 25-608): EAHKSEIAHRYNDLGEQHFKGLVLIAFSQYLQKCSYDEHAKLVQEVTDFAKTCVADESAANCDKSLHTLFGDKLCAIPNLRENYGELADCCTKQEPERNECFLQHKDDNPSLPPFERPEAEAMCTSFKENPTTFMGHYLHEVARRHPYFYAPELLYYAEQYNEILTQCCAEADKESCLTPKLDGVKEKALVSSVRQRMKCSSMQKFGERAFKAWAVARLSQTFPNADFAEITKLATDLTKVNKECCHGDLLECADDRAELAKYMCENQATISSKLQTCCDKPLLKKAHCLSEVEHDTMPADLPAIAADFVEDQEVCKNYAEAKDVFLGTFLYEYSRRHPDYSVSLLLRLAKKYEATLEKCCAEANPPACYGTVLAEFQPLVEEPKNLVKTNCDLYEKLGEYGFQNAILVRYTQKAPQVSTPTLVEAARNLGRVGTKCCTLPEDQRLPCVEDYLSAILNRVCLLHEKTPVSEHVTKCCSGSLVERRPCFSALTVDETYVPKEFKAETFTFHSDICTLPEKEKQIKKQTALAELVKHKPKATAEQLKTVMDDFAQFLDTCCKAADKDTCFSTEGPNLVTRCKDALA
Excerpt: as §5

Rat Serum Albumin = target: T3, Rat Serum Albumin (Rattus norvegicus, UniProt P02770); experiment: ThermoFluor thermal shift assay with rat serum albumin; format: binding
T3 construct: The above albumins were prepared using method IV of Cohn et al. (J. Am. Chem. Soc. 69: 1753-1761, 1947) and purified with 1× crystallization; purchased Sigma A-6414
T3 sequence (P02770 25-608): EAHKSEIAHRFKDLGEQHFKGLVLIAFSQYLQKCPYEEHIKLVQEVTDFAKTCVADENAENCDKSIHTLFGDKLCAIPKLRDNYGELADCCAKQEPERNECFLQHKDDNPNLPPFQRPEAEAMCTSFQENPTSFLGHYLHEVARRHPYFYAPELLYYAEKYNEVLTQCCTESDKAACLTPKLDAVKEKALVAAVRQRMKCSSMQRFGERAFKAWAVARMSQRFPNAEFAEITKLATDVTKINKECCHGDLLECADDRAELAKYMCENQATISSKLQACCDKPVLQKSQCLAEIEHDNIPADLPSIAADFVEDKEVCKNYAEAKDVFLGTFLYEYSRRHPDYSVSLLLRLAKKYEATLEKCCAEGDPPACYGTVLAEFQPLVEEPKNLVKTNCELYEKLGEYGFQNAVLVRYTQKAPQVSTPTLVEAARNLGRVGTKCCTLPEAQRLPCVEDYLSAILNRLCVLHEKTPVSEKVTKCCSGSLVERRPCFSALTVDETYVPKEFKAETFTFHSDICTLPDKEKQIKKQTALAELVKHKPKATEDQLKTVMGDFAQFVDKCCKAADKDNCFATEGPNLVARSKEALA
Excerpt: as §5

HSA = HSA (Homo sapiens, UniProt P02768); settings: binding site on HSA from previous reports; cited from earlier work
HSA, sequence (P02768 25-609): as the sequence (P02768 25-609) above

[4] = Human Albumin (KD), Example 4, Table 3
[5] = classified from KD versus IC50 and % displacement of 1,8-ANS
[6] = HSA - KD, Example 3, Table 2, ThermoFluor, Equation 10b

Human Serum Albumin (HSA), sequence (P02768 25-609): as above

C=CC1=C(C)/C(=C/c2[nH]c(Cc3[nH]c(/C=C4\NC(=O)C(C)=C4C=C)c(C)c3CCC(=O)O)c(CCC(=O)O)c2C)NC1=O [Bilirubin, bilirubin]
pKd [1, 4]: 4.25 | pKd ([2]; Example 4, Table 3): 4.07 | % Displacement [3]: (11) % | pKd (Mouse Serum Albumin; Example 4, Table 3): < 3.92 | pKd (Rat Serum Albumin; Example 4, Table 3): < 3.92

C[C@]12CCC(=O)C=C1C=C[C@@H]1[C@@H]2CC[C@@]2(C)[C@H]1CC[C@@]2(O)CCC(=O)O [Canrenoate, canrenoate]
pKd [1, 4]: 4.40 | Type of HSA Binding Interaction [1, 5]: Type 4 | pKd ([2]; Example 4, Table 3): < 4.20 | Reported Binding Site (HSA): Site 1 | % Displacement [3]: (33) % | pKd (Mouse Serum Albumin; Example 4, Table 3): < 4.20 | pKd (Rat Serum Albumin; Example 4, Table 3): < 4.20

CC(C(=O)O)c1ccc2c(c1)[nH]c1ccc(Cl)cc12 (centres unmarked) [Carprofen, carprofen]
pKd [1, 6]: 5.68 | pKd [1, 4]: 5.68 | Type of HSA Binding Interaction [1, 5]: Type 3 | pKd ([2]; Example 4, Table 3): 5.54 | Reported Binding Site (HSA): Site 2 | pIC50 [3]: 5.08 | % Displacement [3]: (87) % | pKd (Mouse Serum Albumin; Example 4, Table 3): 5.96 | pKd (Rat Serum Albumin; Example 4, Table 3): 5.82

NS(=O)(=O)c1cc2c(cc1Cl)N=CNS2(=O)=O [Chlorothiazide, chlorothiazide]
pKd [1, 4]: < 4.20 | Type of HSA Binding Interaction [1, 5]: Type 4 | pKd ([2]; Example 4, Table 3): < 4.20 | Reported Binding Site (HSA): Site 2 | % Displacement [3]: (12) % | pKd (Mouse Serum Albumin; Example 4, Table 3): < 4.20 | pKd (Rat Serum Albumin; Example 4, Table 3): < 4.20

CCCNC(=O)NS(=O)(=O)c1ccc(Cl)cc1 [Chlorpropamide, chlorpropamide]
pKd [1, 6]: 4.09 | pKd [1, 4]: 4.46 | Type of HSA Binding Interaction [1, 5]: Type 4 | pKd ([2]; Example 4, Table 3): 4.38 | Reported Binding Site (HSA): Site 1 | % Displacement [3]: (20) % | pKd (Mouse Serum Albumin; Example 4, Table 3): 3.96 | pKd (Rat Serum Albumin; Example 4, Table 3): 4.53

CCOC(=O)C(C)(C)Oc1ccc(Cl)cc1 [Clofibrate, clofibrate]
pKd [1, 4]: < 4.20 | pKd ([2]; Example 4, Table 3): < 4.20 | % Displacement [3]: (10) % | pKd (Mouse Serum Albumin; Example 4, Table 3): < 4.20 | pKd (Rat Serum Albumin; Example 4, Table 3): < 4.20

CC(C(=O)O)c1ccc(-c2ccccc2)c(F)c1 (centres unmarked) [Flurbiprofen, flurbiprofen]
pKd [1, 6]: 5.68 | pKd [1, 4]: 5.68 | pKd ([1]; KD, Example 2, Table 1, from Tm over compound concentration (Equation 10b)): 5.57 | Type of HSA Binding Interaction [1, 5]: Type 3 | HSA Tm ([1]; compound 0.244 μM): 74.4 °C | HSA Tm ([1]; compound 0.488 μM): 74.1 °C | HSA Tm ([1]; compound 0.977 μM): 74.3 °C | HSA Tm ([1]; compound 1.95 μM): 74.4 °C | HSA Tm ([1]; compound 3.91 μM): 75.0 °C | HSA Tm ([1]; compound 7.81 μM): 75.1 °C | HSA Tm ([1]; compound 15.6 μM): 75.7 °C | HSA Tm ([1]; compound 31.3 μM): 76.1 °C | HSA Tm ([1]; compound 62.5 μM): 76.8 °C | HSA Tm ([1]; compound 125 μM): 78.2 °C | HSA Tm ([1]; compound 250 μM): 80.2 °C | pKd ([2]; Example 4, Table 3): 5.73 | Reported Binding Site (HSA): Site 2 | pIC50 [3]: 3.81 | Binding to site I of albumin as indicated by 1,8-ANS fluorescence ([3]; Example 2, dose-dependent change of initial fluorescence): does not bind to site I | Fluorescent Signal ([3]; compound 0.244 μM): 110% | Fluorescent Signal ([3]; compound 0.488 μM): 105% | Fluorescent Signal ([3]; compound 0.977 μM): 102% | Fluorescent Signal ([3]; compound 1.95 μM): 104% | Fluorescent Signal ([3]; compound 3.91 μM): 118% | Fluorescent Signal ([3]; compound 7.81 μM): 106% | Fluorescent Signal ([3]; compound 15.6 μM): 111% | Fluorescent Signal ([3]; compound 31.3 μM): 108% | Fluorescent Signal ([3]; compound 62.5 μM): 101% | Fluorescent Signal ([3]; compound 125 μM): 109% | Fluorescent Signal ([3]; compound 250 μM): 105% | % Displacement [3]: (47) % | pKd (Mouse Serum Albumin; Example 4, Table 3): 5.42 | pKd (Rat Serum Albumin; Example 4, Table 3): 5.53

CCC(Cc1c(I)cc(I)c(N)c1I)C(=O)O (centres unmarked) [Iodopanoate, iodopanoate]
pKd [1]: 6.20 | Type of HSA Binding Interaction [1, 5]: Type 3 | pKd ([2]; Example 4, Table 3): 5.89 | Reported Binding Site (HSA): Site 2 | pIC50 [3]: 5.13 | % Displacement [3]: (83) % | pKd (Mouse Serum Albumin; Example 4, Table 3): 6.12 | pKd (Rat Serum Albumin; Example 4, Table 3): 6.02

N[C@@H](Cc1c[nH]c2ccccc12)C(=O)O [L-Tryptophan, L-tryptophan]
Type of HSA Binding Interaction [1]: Type 5 | pKd ([1]; Human Albumin (KD)): < 4.20 | pKd [2]: < 4.20 | Reported Binding Site (HSA): Multiple sites | pKd (Mouse Serum Albumin): < 4.20 | pKd (Rat Serum Albumin): < 4.20

c1ccc2c(c1)[nH]c1cnccc12 [Norharmane, norharmane]
Type of HSA Binding Interaction [1]: Type 5 | pKd [1, 6]: 4.75 | pKd [1, 4]: 4.75 | pKd ([2]; Example 4, Table 3): < 4.20 | Reported Binding Site (HSA): Site 2 | pKd (Mouse Serum Albumin; Example 4, Table 3): < 4.20 | pKd (Rat Serum Albumin; Example 4, Table 3): < 4.20

O=c1c(O)c(-c2ccc(O)c(O)c2)oc2cc(O)cc(O)c12 [Quercetin, quercetin]
pKd [1, 6]: 5.10 | pKd [1, 4]: < 4.20 | Type of HSA Binding Interaction [1, 5]: Type 1 | Reported Binding Site (HSA): Site 1 | pIC50 [3]: 4.60 | % Displacement [3]: (51) % | % Displacement ([3]; listed as quercetin): about 51% | pKd (Mouse Serum Albumin; Example 4, Table 3): < 4.20 | pKd (Rat Serum Albumin; Example 4, Table 3): < 4.20

CN1C(C(=O)Nc2ccccn2)=C(O)c2sccc2S1(=O)=O [Tenoxicam, tenoxicam]
pKd [1, 6]: 4.89 | pKd [1, 4]: 4.89 | pKd ([2]; Example 4, Table 3): < 4.20 | pIC50 [3]: 4.45 | % Displacement [3]: (84) % | pKd (Mouse Serum Albumin; Example 4, Table 3): < 4.20 | pKd (Rat Serum Albumin; Example 4, Table 3): 4.47

CCCC(CCC)C(=O)O [Valproate, valproate]
pKd [1, 4]: < 4.20 | pKd ([2]; Example 4, Table 3): < 4.20 | % Displacement [3]: (31) % | pKd (Mouse Serum Albumin; Example 4, Table 3): < 4.20 | pKd (Rat Serum Albumin; Example 4, Table 3): < 4.20
